How the values were obtained:
[1] = test system: surinam grass; assay: Test B pre/postemergence surinam grass; format: in vivo, Brachiaria decumbens
Summary of the method: (§1)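 Response is a visual 0-to-10 score relative to untreated plants, where 0 means no effect and 10 means complete control, taken twelve to sixteen days after application. Treatments went onto soil at planting and onto foliage of 1- to 4-leaf plants, using a surfactant-containing non-phytotoxic solvent.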

[2] = test system: blackgrass; assay: Test B pre/postemergence blackgrass; format: in vivo, Alopecurus myosuroides
Summary of the method: as §1

[3] = test system: bedstraw; assay: Test B pre/postemergence bedstraw; format: in vivo, Galium aparine; conditions: for Bedstraw plant response rating: scale of 0 to 10 where 0 is no effect and 10 is complete control
Summary of the method: as §1

[4] = test system: pigweed; assay: Test B pre/postemergence pigweed; format: in vivo, Amaranthus retroflexus
Summary of the method: as §1

[5] = test system: wild oat; assay: Test B pre/postemergence wild oat; format: in vivo, Avena fatua
Summary of the method: as §1

[6] = test system: purple nutsedge; assay: Test B pre/postemergence purple nutsedge; format: in vivo, Cyperus rotundus
Summary of the method: as §1

[7] = test system: rape; assay: Test B pre/postemergence rape; format: in vivo, Brassica napus
Summary of the method: as §1

[8] = test system: wheat; assay: Test B pre/postemergence wheat; format: in vivo, Triticum aestivum
Summary of the method: as §1

[9] = test system: duck salad; assay: Test B flood test duck salad; format: in vivo, Heteranthera limosa
Summary of the method: (§2)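 Read-out is a visual response score from 0 (no effect) to 10 (complete control), assigned by comparison with untreated controls. Treatment was applied at the 2-leaf stage, and plants stayed in the greenhouse for twelve to sixteen days before scoring.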

[10] = test system: crabgrass; assay: Test B pre/postemergence crabgrass; format: in vivo, Digitaria sanguinalis
Summary of the method: as §1

[11] = test system: corn; assay: Test B pre/postemergence corn; format: in vivo, Zea mays
Summary of the method: as §1

[12] = test system: sugar beet; assay: Test B pre/postemergence sugar beet; format: in vivo, Beta vulgaris
Summary of the method: as §1

[13] = test system: velvetleaf; assay: Test B pre/postemergence velvetleaf; format: in vivo, Abutilon theophrasti
Summary of the method: as §1

[14] = test system: smallflower flatsedge; assay: Test B flood test smallflower flatsedge; format: in vivo, Cyperus difformis
Summary of the method: as §2

[15] = test system: soybean; assay: Test B pre/postemergence soybean; format: in vivo, Glycine max
Summary of the method: as §1

[16] = test system: rice; assay: Test B flood test rice; format: in vivo, Oryza sativa
Summary of the method: as §2

[17] = Preemergence, Rate 62 g/ha, scale of 0 to 10 where 0 is no effect and 10 is complete control
[18] = Preemergence, Rate 250 g/ha, scale of 0 to 10 where 0 is no effect and 10 is complete control
[19] = Preemergence, Rate 500 g/ha, scale of 0 to 10 where 0 is no effect and 10 is complete control
[20] = Rate 62 g/ha, Postemergence, scale 0 to 10 (0 no effect, 10 complete control)
[21] = Rate 125 g/ha, Postemergence, scale of 0 to 10 where 0 is no effect and 10 is complete control
[22] = Rate 250 g/ha, Postemergence, scale of 0 to 10 where 0 is no effect and 10 is complete control
[23] = Rate 500 g/ha, Postemergence, scale 0 to 10, 0 no effect, 10 complete control
[24] = Rate 62 g/ha, headed Pre-emergence (flood test species), scale 0 to 10 (0 no effect, 10 complete control)
[25] = Rate 125 g/ha, Pre-emergence, flood test species, scale 0 to 10 where 0 is no effect and 10 is complete control
[26] = Rate 250 g/ha, Pre-emergence, flood-test species, scale 0 to 10, 0 is no effect, 10 is complete control
[27] = Rate 500 g/ha, Pre-emergence, flood test species, scale 0 to 10 (0 no effect, 10 complete control)

CC(C)C(C)n1c(=O)on(C(=O)N(c2ccc(F)cc2)C(C)C)c1=O (stereo not drawn) [Compound 316]
B. signalgrass plant response rating [1, 17]: 6 | B. signalgrass plant response rating (0 to 10 scale, 0 is no effect, 10 is complete control) ([1]; Preemergence, Rate 125 g/ha): 7 | B. signalgrass plant response rating [1, 18]: 9 | B. signalgrass plant response rating [1, 19]: 9 | B. signalgrass plant response rating [1, 20]: 0 | B. signalgrass plant response rating [1, 21]: 0 | Plant response rating, B. signalgrass [1, 22]: 0 | B. signalgrass plant response rating [1, 23]: 2 | Blackgrass plant response rating [2, 17]: 8 | Blackgrass plant response rating (0 to 10 scale) ([2]; Preemergence, Rate 125 g/ha): 10 | Blackgrass plant response rating [2, 18]: 10 | Blackgrass plant response rating [2, 19]: 10 | Blackgrass plant response rating [2, 20]: 0 | Blackgrass plant response rating [2, 21]: 1 | Plant response rating, Blackgrass [2, 22]: 4 | Blackgrass plant response rating [2, 23]: 7 | Bedstraw plant response rating ([3]; Preemergence, Rate 62 g/ha): 0 | Bedstraw plant response rating (0 to 10 scale) ([3]; Preemergence, Rate 125 g/ha): 0 | Bedstraw plant response rating ([3]; Preemergence, Rate 250 g/ha): 3 | Bedstraw plant response rating ([3]; Preemergence, Rate 500 g/ha): 6 | Bedstraw plant response rating ([3]; Rate 125 g/ha, Postemergence): 2 | Redroot pigweed plant response rating [4, 17]: 4 | Redroot pigweed plant response rating (0 to 10 scale) ([4]; Preemergence, Rate 125 g/ha): 6 | Redroot pigweed plant response rating [4, 18]: 10 | Redroot pigweed plant response rating [4, 19]: 10 | Redroot pigweed plant response rating [4, 20]: 2 | Redroot pigweed plant response rating [4, 21]: 2 | Plant response rating, Redroot pigweed [4, 22]: 3 | Wild oats plant response rating [5, 17]: 4 | Wild oats plant response rating (0 to 10 scale) ([5]; Preemergence, Rate 125 g/ha): 4 | Wild oats plant response rating [5, 18]: 6 | Wild oats plant response rating [5, 19]: 6 | Wild oats plant response rating [5, 20]: 0 | Wild oats plant response rating [5, 21]: 0 | Plant response rating, Wild oats [5, 22]: 2 | Nutsedge plant response rating [6, 17]: 0 | Nutsedge plant response rating (0 to 10 scale) ([6]; Preemergence, Rate 125 g/ha): 0 | Nutsedge plant response rating [6, 20]: 0 | Nutsedge plant response rating [6, 21]: 0 | Plant response rating, Nutsedge [6, 22]: 0 | Rape plant response rating [7, 17]: 0 | Rape plant response rating (0 to 10 scale) ([7]; Preemergence, Rate 125 g/ha): 0 | Rape plant response rating [7, 18]: 4 | Rape plant response rating [7, 19]: 4 | Rape plant response rating [7, 20]: 0 | Rape plant response rating [7, 21]: 0 | Plant response rating, Rape [7, 22]: 1 | Wheat plant response rating [8, 17]: 0 | Wheat plant response rating (0 to 10 scale) ([8]; Preemergence, Rate 125 g/ha): 0 | Wheat plant response rating [8, 18]: 2 | Wheat plant response rating [8, 19]: 2 | Wheat plant response rating [8, 20]: 0 | Wheat plant response rating [8, 21]: 0 | Plant response rating, Wheat [8, 22]: 2 | Ducksalad plant response rating [9, 24]: 0 | Ducksalad plant response rating [9, 25]: 0 | Ducksalad plant response rating [9, 26]: 3 | Ducksalad plant response rating [9, 27]: 0 | Crabgrass plant response rating [10, 17]: 6 | Crabgrass plant response rating (0 to 10 scale) ([10]; Preemergence, Rate 125 g/ha): 8 | Crabgrass plant response rating [10, 18]: 8 | Crabgrass plant response rating [10, 19]: 10 | Crabgrass plant response rating [10, 20]: 0 | Crabgrass plant response rating [10, 21]: 0 | Plant response rating, Crabgrass [10, 22]: 0 | Corn plant response rating [11, 17]: 0 | Corn plant response rating (0 to 10 scale) ([11]; Preemergence, Rate 125 g/ha): 0 | Corn plant response rating [11, 18]: 0 | Corn plant response rating [11, 19]: 5 | Corn plant response rating [11, 20]: 0 | Corn plant response rating [11, 21]: 0 | Plant response rating, Corn [11, 22]: 0 | Corn plant response rating [11, 23]: 0 | Sugarbeets plant response rating [12, 17]: 0 | Sugarbeets plant response rating (0 to 10 scale) ([12]; Preemergence, Rate 125 g/ha): 0 | Sugarbeets plant response rating [12, 18]: 0 | Sugarbeets plant response rating [12, 19]: 4 | Sugarbeets plant response rating [12, 20]: 0 | Sugarbeets plant response rating [12, 21]: 0 | Plant response rating, Sugarbeets [12, 22]: 0 | Velvetleaf plant response rating [13, 17]: 0 | Velvetleaf plant response rating (0 to 10 scale) ([13]; Preemergence, Rate 125 g/ha): 2 | Velvetleaf plant response rating [13, 18]: 3 | Velvetleaf plant response rating [13, 19]: 6 | Velvetleaf plant response rating [13, 20]: 0 | Velvetleaf plant response rating [13, 21]: 0 | Plant response rating, Velvetleaf [13, 22]: 2 | S. Flatsedge plant response rating [14, 24]: 0 | S. Flatsedge plant response rating [14, 25]: 0 | S. Flatsedge plant response rating [14, 26]: 9 | S. Flatsedge plant response rating [14, 27]: 9 | Soybean plant response rating [15, 17]: 0 | Soybean plant response rating (0 to 10 scale) ([15]; Preemergence, Rate 125 g/ha): 0 | Soybean plant response rating [15, 18]: 0 | Soybean plant response rating [15, 19]: 0 | Soybean plant response rating [15, 20]: 3 | Soybean plant response rating [15, 21]: 3 | Plant response rating, Soybean [15, 22]: 4 | Rice plant response rating [16, 24]: 0 | Rice plant response rating [16, 25]: 0 | Rice plant response rating [16, 26]: 1 | Rice plant response rating [16, 27]: 0

— patent US6737383B1, “Herbicidal oxadiazolidines” (priority 1999, dated 2004)
